Reference: US10597388B2, “Pyridazinone herbicides” (FMC CORPORATION, priority 2014, dated 2020)

Tests used:
Test in all cases: Test D controlled growth environment herbicide test, pre- and postemergence
Assay type in all cases: in vivo
[1] = tested on: radish, wild (wild radish, Raphanus raphanistrum)
In short: (§1)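 Rating is visual, 0–100 scale (100 = complete control), made against untreated plants 14–21 d after treatment in controlled growth conditions. Postemergence sprays went onto 1- to 4-leaf plants in peat medium; preemergence sprays onto silt loam after sowing; formulation included a surfactant.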

[2] = tested on: kochia (Kochia scoparia)
In short: as §1

[3] = tested on: speedwell (bird's-eye speedwell, Veronica persica)
In short: as §1

[4] = tested on: pigweed (Amaranthus retroflexus)
In short: as §1

[5] = tested on: galium (catchweed bedstraw, Galium aparine)
In short: as §1

[6] = tested on: bluegrass (annual bluegrass, Poa annua)
In short: as §1

[7] = tested on: mustard, wild (wild mustard, Sinapis arvensis)
In short: as §1

[8] = tested on: oilseed rape (Brassica napus)
In short: as §1

[9] = tested on: buckwheat, wild (wild buckwheat, Polygonum convolvulus)
In short: as §1

[10] = tested on: Russian thistle (Salsola kali)
In short: as §1

[11] = tested on: field violet (Viola arvensis)
In short: as §1

[12] = tested on: windgrass (Apera spica-venti)
In short: as §1

[13] = tested on: canarygrass (Phalaris minor)
In short: as §1

[14] = Postemergence, 31 g ai/ha, scale 0 to 100 (0 no effect, 100 complete control)
[15] = Postemergence, 125 g ai/ha, visual rating on scale 0 (no effect) to 100 (complete control), 14 to 21 d
[16] = Postemergence, 250 g ai/ha, scale 0 to 100 (0 no effect, 100 complete control)
[17] = Preemergence, 62 g ai/ha, scale 0 to 100 (0 no effect, 100 complete control)
[18] = Preemergence, 125 g ai/ha, scale 0 to 100 (0 no effect, 100 complete control)
[19] = Preemergence, 250 g ai/ha, scale 0 to 100 (0 no effect, 100 complete control)
[20] = postemergence, 62 g ai/ha, scale 0 to 100, 0 no effect, 100 complete control

Cc1ccc2ccc(C)c(-c3c(O)c(C)nn(C)c3=O)c2c1 [Compound 60]
Radish, Wild plant response rating [1, 14]: 65
Plant response rating, Radish, Wild [1, 15]: 95
Plant response rating, Radish, Wild [1, 16]: 95
Plant response rating (scale of 0 to 100), Radish, Wild ([1]; Preemergence, 31 g ai/ha): 55
Plant response rating, Radish, Wild [1, 17]: 90
Plant response rating, Radish, Wild [1, 18]: 95
Plant response rating, Radish, Wild [1, 19]: 90
Plant response rating, Radish, Wild [1, 20]: 75
Kochia plant response rating [2, 14]: 70
Plant response rating, Kochia [2, 15]: 90
Plant response rating, Kochia [2, 16]: 95
Plant response rating (scale of 0 to 100), Kochia ([2]; Preemergence, 31 g ai/ha): 15
Plant response rating, Kochia [2, 17]: 20
Plant response rating, Kochia [2, 18]: 60
Plant response rating, Kochia [2, 19]: 75
Plant response rating, Kochia [2, 20]: 85
Speedwell plant response rating [3, 14]: 85
Plant response rating, Speedwell [3, 15]: 90
Plant response rating, Speedwell [3, 16]: 100
Plant response rating (scale of 0 to 100), Speedwell ([3]; Preemergence, 31 g ai/ha): 100
Plant response rating, Speedwell [3, 17]: 100
Plant response rating, Speedwell [3, 18]: 100
Plant response rating, Speedwell [3, 19]: 100
Plant response rating, Speedwell [3, 20]: 80
Pigweed plant response rating [4, 14]: 75
Plant response rating, Pigweed [4, 15]: 100
Plant response rating, Pigweed [4, 16]: 100
Plant response rating (scale of 0 to 100), Pigweed ([4]; Preemergence, 31 g ai/ha): 100
Plant response rating, Pigweed [4, 17]: 100
Plant response rating, Pigweed [4, 18]: 100
Plant response rating, Pigweed [4, 19]: 100
Plant response rating, Pigweed [4, 20]: 95
Galium plant response rating [5, 14]: 100
Plant response rating, Galium [5, 15]: 100
Plant response rating, Galium [5, 16]: 100
Plant response rating (scale of 0 to 100), Galium ([5]; Preemergence, 31 g ai/ha): 75
Plant response rating, Galium [5, 17]: 85
Plant response rating, Galium [5, 18]: 95
Plant response rating, Galium [5, 19]: 100
Plant response rating, Galium [5, 20]: 100
Bluegrass plant response rating [6, 14]: 15
Plant response rating, Bluegrass [6, 15]: 35
Plant response rating, Bluegrass [6, 16]: 60
Plant response rating (scale of 0 to 100), Bluegrass ([6]; Preemergence, 31 g ai/ha): 35
Plant response rating, Bluegrass [6, 17]: 45
Plant response rating, Bluegrass [6, 18]: 65
Plant response rating, Bluegrass [6, 19]: 80
Plant response rating, Bluegrass [6, 20]: 25
Mustard, Wild plant response rating [7, 14]: 75
Plant response rating, Mustard, Wild [7, 15]: 98
Plant response rating, Mustard, Wild [7, 16]: 100
Plant response rating (scale of 0 to 100), Mustard, Wild ([7]; Preemergence, 31 g ai/ha): 45
Plant response rating, Mustard, Wild [7, 17]: 70
Plant response rating, Mustard, Wild [7, 18]: 85
Plant response rating, Mustard, Wild [7, 19]: 90
Plant response rating, Mustard, Wild [7, 20]: 75
Oilseed Rape plant response rating [8, 14]: 65
Plant response rating, Oilseed Rape [8, 15]: 75
Plant response rating, Oilseed Rape [8, 16]: 80
Plant response rating (scale of 0 to 100), Oilseed Rape ([8]; Preemergence, 31 g ai/ha): 0
Plant response rating, Oilseed Rape [8, 17]: 15
Plant response rating, Oilseed Rape [8, 18]: 40
Plant response rating, Oilseed Rape [8, 19]: 80
Plant response rating, Oilseed Rape [8, 20]: 70
Buckwheat, Wild plant response rating [9, 14]: 90
Plant response rating, Buckwheat, Wild [9, 15]: 100
Plant response rating, Buckwheat, Wild [9, 16]: 100
Plant response rating (scale of 0 to 100), Buckwheat, Wild ([9]; Preemergence, 31 g ai/ha): 0
Plant response rating, Buckwheat, Wild [9, 17]: 25
Plant response rating, Buckwheat, Wild [9, 18]: 50
Plant response rating, Buckwheat, Wild [9, 19]: 60
Plant response rating, Buckwheat, Wild [9, 20]: 95
Russian Thistle plant response rating [10, 14]: 80
Plant response rating, Russian Thistle [10, 15]: 80
Plant response rating, Russian Thistle [10, 16]: 85
Plant response rating (scale of 0 to 100), Russian Thistle ([10]; Preemergence, 31 g ai/ha): 15
Plant response rating, Russian Thistle [10, 17]: 20
Plant response rating, Russian Thistle [10, 18]: 35
Plant response rating, Russian Thistle [10, 19]: 70
Plant response rating, Russian Thistle [10, 20]: 80
Field Violet plant response rating [11, 14]: 80
Plant response rating, Field Violet [11, 15]: 100
Plant response rating, Field Violet [11, 16]: 85
Plant response rating (scale of 0 to 100), Field Violet ([11]; Preemergence, 31 g ai/ha): 95
Plant response rating, Field Violet [11, 17]: 100
Plant response rating, Field Violet [11, 18]: 100
Plant response rating, Field Violet [11, 19]: 100
Plant response rating, Field Violet [11, 20]: 95
Windgrass plant response rating [12, 14]: 80
Plant response rating, Windgrass [12, 15]: 90
Plant response rating, Windgrass [12, 16]: 98
Plant response rating (scale of 0 to 100), Windgrass ([12]; Preemergence, 31 g ai/ha): 85
Plant response rating, Windgrass [12, 17]: 90
Plant response rating, Windgrass [12, 18]: 100
Plant response rating, Windgrass [12, 19]: 100
Plant response rating, Windgrass [12, 20]: 85
Canarygrass plant response rating [13, 14]: 80
Plant response rating, Canarygrass [13, 15]: 85
Plant response rating, Canarygrass [13, 16]: 90
Plant response rating (scale of 0 to 100), Canarygrass ([13]; Preemergence, 31 g ai/ha): 90
Plant response rating, Canarygrass [13, 17]: 95
Plant response rating, Canarygrass [13, 18]: 95
Plant response rating, Canarygrass [13, 19]: 100
Plant response rating, Canarygrass [13, 20]: 80
